Reference: article PMC6268609, “Synthesis and Evaluation of New β-Carboline-3-(4-benzylidene)-4H-oxazol-5-one Derivatives as Antitumor Agents” (Molecules, 2012)
Where two headings read alike, the source gives them in different places.

Columns and labels:
glioma (U251) = assay: Cytotoxic assay (sulforhodamine B), glioma; assay type: cell-based, human; conditions: for IC50: Homo sapiens, U-251, 48 h, sulforhodamine B assay
Description: (§1) The synthesized compounds were evaluated in vitro against six human cancer cell lines consisting of glioma (U251), melanoma (UACC-62), breast (MCF-7), prostate (PC-3), ovarian (OVCAR-03) and colon (HT-29). Cell lines were obtained from National Cancer Institute (Frederick, MD, USA). Normal cell line (VERO, renal, green monkey), from the Rio de Janeiro Cell Bank, was also used. Stock cultures were grown in medium containing 5 mL RPMI 1640 (GIBCO BRL) supplemented with 5% fetal bovine serum (FBS, GIBCO), at 37 °C with 5% CO2. Penicillin:streptomycin (1000 μg/L:1000 U/L, 1 mL/L) was added to the experimental cultures. Cells in 96-well plates (100 μL cells well^−1) were exposed to compounds 8–11 in DMSO (concentrations of 0.25, 2.5, 25, and 250 μg·mL^−1) at 37 °C, 5% of CO2 in air for 48 h. […] Afterwards cells were fixed with 50% trichloroacetic acid and cell proliferation determined by spectrophotometric quantification (540 nm) of cellular protein content by using sulforhodamine B assay and doxorubicin as the positive control. Three measurements were obtained: at time zero (To, at the beginning of incubation) and 48 h post-incubation for compound-free (C) and tested (T) cells. Cell proliferation was determined according to the equation 100 × [(T − T0)/C − T0], for T0 < T ≤ C, and 100 × [(T − T0)/T0], for T ≤ T0 and a concentration-response curve for each cell line was plotted using software ORIGIN 8.0® (OriginLab Corporation). Using the concentration–response curve for each cell line, the IC50 values (concentration that produces a 50% reduction in cellular growth when compared to untreated control cells) and IC100 values (concentration that promotes total growth inhibition) were determined through non-linear regression analysis using software ORIGIN 8.0® (OriginLab Corporation). Compounds with IC50 values < 100 μM were considered actives.

melanoma (UACC-62) = assay: Cytotoxic assay (sulforhodamine B), melanoma; assay type: cell-based, human; conditions: for IC50: Homo sapiens, UACC-62, 48 h, sulforhodamine B assay
Description: as §1

breast (MCF-7) = assay: Cytotoxic assay (sulforhodamine B), breast; assay type: cell-based; conditions: Homo sapiens, MCF7, 48 h
Description: as §1

prostate (PC-3) [1] = assay: Cytotoxic assay (sulforhodamine B), prostate; assay type: cell-based, human; conditions: for IC50: Homo sapiens, 48 h, sulforhodamine B assay
Description: as §1

ovarian (OVCAR-03) [2] = assay: Cytotoxic assay (sulforhodamine B), ovarian; assay type: cell-based, human; conditions: for IC50: Homo sapiens, 48 h, sulforhodamine B assay
Description: as §1

colon (HT-29) = assay: Cytotoxic assay (sulforhodamine B), colon; assay type: cell-based; conditions: Homo sapiens, 48 h
Description: as §1

[3] = test system: Normal cell line (VERO, renal, green monkey); assay: Cytotoxic assay (sulforhodamine B), normal cell line; assay type: cell-based; conditions: Chlorocebus sabaeus, 48 h
Description: as §1

ovarian (OVCAR-03) [4] = conditions: previous work; cited from earlier work
prostate (PC-3) [5] = conditions: previous work; cited from earlier work

O=C1OC(c2cc3c([nH]c4ccccc43)c(-c3ccccc3)n2)=NC1=Cc1cccc([N+](=O)[O-])c1 [Compound 8, 2-(1-Phenyl-9H-β-carbolin-3-yl)-4-(3-nitrobenzylidene)-4H-oxazol-5-one]
IC50 (glioma (U251)): 62.4 µM
IC50 (melanoma (UACC-62)): 7.52 µM
IC50 (breast (MCF-7)): > 100 µM
IC50 (prostate (PC-3) [1]): > 100 µM
IC50 (ovarian (OVCAR-03) [2]): 63.2 µM
IC50 (colon (HT-29)): > 100 µM
IC50 [3]: > 100 µM

COc1cccc2c1C(=O)c1c(O)c3c(c(O)c1C2=O)C[C@@](O)(C(=O)CO)C[C@@H]3O[C@H]1C[C@H](N)[C@H](O)[C@H](C)O1 [Doxorubicin, reference compound]
IC50 (glioma (U251)): 0.03 µM
IC50 (melanoma (UACC-62)): 0.04 µM
IC50 (breast (MCF-7)): 0.06 µM
IC50 (prostate (PC-3) [1]): 0.05 µM
IC50 (ovarian (OVCAR-03) [2]): 0.42 µM
IC50 (colon (HT-29)): 0.18 µM
IC50 [3]: 0.5 µM

COc1ccc(-c2nc(-c3nnc(SC)o3)cc3c2[nH]c2ccccc23)cc1 [1-(4-methoxyphenyl)-3-(2-methylthio-1,3,4-oxadiazol-5-yl) β-carboline]
IC50 (ovarian (OVCAR-03) [4]): 2.13 µM

COc1ccc(-c2nc(C3=NC(=Cc4ccccc4)C(=O)O3)cc3c2[nH]c2ccccc23)cc1 [Compound 11, 2-[1-(4-Methoxyphenyl)-9H-β-carbolin-3-yl]-4-benzylidene-4H-oxazol-5-one]
IC50 (glioma (U251)): 0.48 µM
IC100 (concentration that promotes total growth inhibition) (glioma (U251); glioma (U251), cytostatic activity): 15.50 µM
IC50 (melanoma (UACC-62)): 10 µM
IC100 (concentration that promotes total growth inhibition) (melanoma (UACC-62); melanoma (UACC-62), cytostatic activity): 112.42 µM
IC50 (breast (MCF-7)): 23.4 µM
IC50 (prostate (PC-3) [1]): 1.5 µM
IC100 (concentration that promotes total growth inhibition) (prostate (PC-3) [1]; prostate (PC-3), cytostatic activity): 64.17 µM
IC50 (ovarian (OVCAR-03) [2]): 1.07 µM
IC100 (concentration that promotes total growth inhibition) (ovarian (OVCAR-03) [2]; ovarian (OVCAR-03), cytostatic activity): 56.83 µM
IC50 (colon (HT-29)): 67.9 µM
IC50 [3]: 63.2 µM

CC(=O)Oc1ccc(-c2nc(C3=NC(=Cc4cccc([N+](=O)[O-])c4)C(=O)O3)cc3c2[nH]c2ccccc23)cc1 [Compound 9, 2-[1-(4-Acetoxyphenyl)-9H-β-carbolin-3-yl]-4-(3-nitrobenzylidene)-4H-oxazol-5-one]
IC50 (glioma (U251)): 80.2 µM
IC50 (melanoma (UACC-62)): 8.76 µM
IC50 (breast (MCF-7)): > 100 µM
IC50 (prostate (PC-3) [1]): > 100 µM
IC50 (ovarian (OVCAR-03) [2]): > 100 µM
IC50 (colon (HT-29)): > 100 µM
IC50 [3]: > 100 µM

O=C(NN=Cc1ccccc1Cl)c1cc2c([nH]c3ccccc32)c(-c2ccc(O)cc2)n1 [N'-(2-chlorobenzylidene)-1-(4-hydroxyphenyl)-β-carboline-3-carbohydrazide]
IC50 (prostate (PC-3) [5]): 1.83 µM
IC50 (ovarian (OVCAR-03) [4]): 1.65 µM

CN(C)c1ccc(-c2nc(-c3n[nH]c(=S)[nH]3)cc3c2[nH]c2ccccc23)cc1 [1-(4-N,N-dimethylaminophenyl)-3-(5-thioxo-1,2,4-triazol-3-yl)-β-carboline]
IC50 (prostate (PC-3) [5]): 1.37 µM
IC50 (ovarian (OVCAR-03) [4]): 1.09 µM

COc1ccc(-c2nc(C3=NC(=Cc4cccc([N+](=O)[O-])c4)C(=O)O3)cc3c2[nH]c2ccccc23)cc1 [Compound 10, 2-[1-(4-Methoxyphenyl)-9H-β-carbolin-3-yl]-4-(3-nitrobenzylidene)-4H-oxazol-5-one]
IC50 (glioma (U251)): 0.35 µM
IC50 (melanoma (UACC-62)): 15.9 µM
IC50 (breast (MCF-7)): 47.6 µM
IC50 (prostate (PC-3) [1]): 5.28 µM
IC50 (ovarian (OVCAR-03) [2]): 2.18 µM
IC50 (colon (HT-29)): > 100 µM
IC50 [3]: > 100 µM
